Structures can show the parent of a compound that is named as a salt.
Experiments:
Assay type in all cases: physicochemical
[1] = oxidation potential E1 by cyclic voltammetry; settings: for E1 (V) for XY moiety: Table H, model compound, A and L replaced by alkyl
Outline: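 Compound in 80:20 (v/v) acetonitrile/water with 0.1M lithium perchlorate, nitrogen-purged 10 minutes. Glassy carbon working, platinum wire counter and saturated calomel reference electrodes; 25° C, sweep rate 0.1 V/sec. E1 is the voltammetric peak potential vs. SCE.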

[2] = fragmentation rate constant kfr by laser flash photolysis; settings: Table H; model compound, A and L replaced by alkyl
Outline: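 DCA excited by laser in presence of biphenyl and ca. 10^-2 M donor generates X-Y radical cation; its decay was monitored at mostly 470-530 nm. Run in acetonitrile with 20% water, mostly at room temperature, some rates extrapolated from temperature dependence; oxygen purging used for decays below 10^6 s^-1.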

[3] = oxidation potential E2 of radical X by laser flash photolysis; settings: Table H; model compound, A and L replaced by alkyl
Outline: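 Radical X· generated by fragmentation of X-Y·+, formed via 410 nm laser-excited cyanoanthracene (ca. 2×10^-5–10^-4 M) with biphenyl (ca. 0.1 M) cosensitiser and X-Y (ca. 10^-3 M) in acetonitrile or 80:20 acetonitrile/water. E2 bracketed by observing second-acceptor reduction (DCA −0.91 V, TriCA −0.67 V, TCA −0.44 V) by transient absorption near 705–715 nm.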

In the case of `CCSCCN(c1ccc(C)cc1)[C@@H](C)C(=O)[O-].[Na+]` [Compound S-3, N-(4-Methylphenyl)-N-(2-ethylthio-ethyl)alanine sodium salt], the “E1 (V) for XY moiety” value [1] was 0.34 V, the “E1 (V)” value ([1]; Table II) was 0.47 V and the “E1 (V)” value ([1]; Table III) was 0.38 V. For the same molecule, the “E1 (V)” value ([1]; Table X) was 0.38 V, the “kfr (s^-1) for XY moiety” value [2] was 6e+07 s⁻¹ and the “E2 (V) for XY moiety” value [3] was less than -0.9 V.
In the case of `CCSCCN(c1ccc(C)cc1)C(CC(=O)O)C(=O)O` (stereo not drawn) [Compound S-8], the “E1 (V) for XY moiety” value [1] was 0.38 V, the “E1 (V)” value ([1]; Table III) was 0.45 V and the “E1 (V)” value ([1]; Table X) was 0.45 V. The “kfr (s^-1) for XY moiety” value [2] was 1.3e+07 s⁻¹ and the “E2 (V) for XY moiety” value [3] was less than -0.9 V.
For `CCSCCN(c1ccccc1)C(C)C(=O)O` (stereo not drawn) [Compound S-9, N-(Phenyl)-N-(2-thioethyl-ethyl)alanine sodium salt], the “E1 (V) for XY moiety” value [1] was 0.43 V, the “E1 (V)” value ([1]; Table III) was 0.43 V and the “E1 (V)” value ([1]; Table IV) was 0.43 V. For the same molecule, the “E1 (V)” value ([1]; Table X) was 0.43 V, the “kfr (s^-1) for XY moiety” value [2] was greater than 2e+07 s⁻¹ and the “E2 (V) for XY moiety” value [3] was less than -0.9 V.
In the case of `CCSCCN(c1ccc(C(=O)O)cc1)C(C)C(=O)O` (stereo not drawn) [Compound S-11], the “E1 (V) for XY moiety” value [1] was 0.54 V, the “E1 (V)” value ([1]; Table IV) was 0.55 V and the “E1 (V)” value ([1]; Table IX) was 0.54 V. For the same molecule, the “E1 (V)” value ([1]; Table XI) was 0.54 V, the “kfr (s^-1) for XY moiety” value [2] was greater than 2e+07 s⁻¹ and the “E2 (V) for XY moiety” value [3] was less than -0.9 V.
With `CCSCCN(c1ccc(Cl)cc1)C(C)C(=O)O` (stereo not drawn) [Compound S-12, N-(4-Chlorophenyl)-N-(2-thioethyl-ethyl)alanine sodium salt] the “E1 (V) for XY moiety” value [1] was 0.40 V, the “E1 (V)” value ([1]; Table IV) was 0.51 V and the “E1 (V)” value ([1]; Table XI) was 0.51 V. The “kfr (s^-1) for XY moiety” value [2] was greater than 2e+07 s⁻¹ and the “E2 (V) for XY moiety” value [3] was less than -0.9 V.
For `CCSCCN(c1cccc(C(N)=O)c1)C(C)C(=O)O` (stereo not drawn) [Compound S-13], the “E1 (V) for XY moiety” value [1] was 0.52 V, the “E1 (V)” value ([1]; Table IV) was 0.53 V and the “E1 (V)” value ([1]; Table IX) was 0.53 V. The “E1 (V)” value ([1]; Table XI) was 0.53 V, the “kfr (s^-1) for XY moiety” value [2] was greater than 2e+07 s⁻¹ and the “E2 (V) for XY moiety” value [3] was less than -0.9 V.
With `CCSCCN(c1ccccc1)C(CC(=O)O)C(=O)O` (stereo not drawn) [Compound S-14] the “E1 (V) for XY moiety” value [1] was 0.48 V, the “E1 (V)” value ([1]; Table IX) was 0.51 V and the “E1 (V)” value ([1]; Table XI) was 0.51 V. The “kfr (s^-1) for XY moiety” value [2] was greater than 2e+07 s⁻¹ and the “E2 (V) for XY moiety” value [3] was less than -0.9 V.
With `Cc1ccc(N(CCC(=O)Nc2cccc(-n3nnnc3S)c2)C(C)C(=O)O)cc1` (stereo not drawn) [PMT-1] the “E1 (V) for XY moiety” value [1] was 0.34 V, the “kfr (s^-1) for XY moiety” value [2] was greater than 2e+07 s⁻¹ and the “E2 (V) for XY moiety” value [3] was less than -0.9 V.
In the case of `CC(C(=O)O)N(CCC(=O)Nc1cccc(-n2nnnc2S)c1)c1ccccc1` (stereo not drawn) [PMT-2], the “E1 (V) for XY moiety” value [1] was 0.43 V, the “kfr (s^-1) for XY moiety” value [2] was greater than 2e+07 s⁻¹ and the “E2 (V) for XY moiety” value [3] was less than -0.9 V.

Source: US5747235A, “Silver halide light sensitive emulsion layer having enhanced photographic sensitivity” (Eastman Kodak Company, priority 1996, dated 1998)
